Measured values published in PubChem BioAssay (NCI).
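Five compound concentrations were applied to cells in 96-well plates for 48 hours; endpoints were derived by simple linear interpolation of the resulting dose-response curve. TGI: total growth inhibition.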

Columns and labels:
Assay in all cases: NCI tumour cell line growth inhibition, 48 h
[1] = tested on: 786-0 renal
[2] = tested on: RXF 393 renal
[3] = tested on: MDA-MB-231 breast
[4] = tested on: EKVX NSCLC
[5] = tested on: SK-MEL-28 melanoma
[6] = tested on: CAKI-1 renal
[7] = tested on: LOX IMVI melanoma
[8] = tested on: SK-MEL-5 melanoma
[9] = tested on: HOP-62 NSCLC
[10] = tested on: BT-549 breast
[11] = tested on: OVCAR-3 ovarian
[12] = tested on: NCI-H226 lung
[13] = tested on: MALME-3M melanoma
[14] = tested on: T-47D breast
[15] = tested on: SNB-75 CNS
[16] = tested on: SF-539 CNS
[17] = tested on: TK-10 renal
[18] = tested on: MDA-N
[19] = tested on: PC-3 prostate
[20] = tested on: HL-60(TB) leukemia
[21] = tested on: UO-31 renal
[22] = tested on: CCRF-CEM leukemia
[23] = tested on: HCT-15 colon
[24] = tested on: SK-OV-3 ovarian
[25] = tested on: A498 renal
[26] = tested on: NCI-H460 lung
[27] = tested on: MOLT-4 leukemia
[28] = tested on: MDA-MB-435
[29] = tested on: NCI-H23 lung
[30] = tested on: MCF7 breast
[31] = tested on: DU-145 prostate
[32] = tested on: OVCAR-8 ovarian
[33] = tested on: UACC-62 melanoma
[34] = tested on: HT29 colon
[35] = tested on: COLO 205 colon
[36] = tested on: SF-268 CNS
[37] = tested on: SF-295 CNS
[38] = tested on: SNB-19 CNS
[39] = tested on: ACHN renal
[40] = tested on: U251 CNS
[41] = tested on: SN12C renal
[42] = tested on: K-562 leukemia
[43] = tested on: SW-620 colon
[44] = tested on: RPMI-8226 leukemia
[45] = tested on: M14 melanoma
[46] = tested on: SK-MEL-2 melanoma
[47] = tested on: A549 NSCLC
[48] = tested on: KM12 colon
[49] = tested on: NCI/ADR-RES ovarian
[50] = tested on: HCT-116 colon
[51] = tested on: OVCAR-4 ovarian
[52] = tested on: OVCAR-5 ovarian
[53] = tested on: UACC-257 melanoma
[54] = tested on: HS 578T breast
[55] = tested on: HOP-92 NSCLC
[56] = tested on: HCC-2998 colon
[57] = tested on: IGROV1 ovarian
[58] = tested on: NCI-H522 lung
[59] = tested on: SR leukemia

Nc1cc2nc(-c3ccccc3)cn2cn1
TGI [1]: > 100 µM | TGI [2]: > 100 µM | TGI [3]: > 100 µM | TGI [4]: 95.3 µM | TGI [5]: > 100 µM | TGI [6]: > 100 µM | TGI [7]: > 100 µM | TGI [8]: > 100 µM | TGI [9]: > 100 µM | TGI [10]: > 100 µM | TGI [11]: > 100 µM | TGI [12]: > 100 µM | TGI [13]: 70 µM | TGI [14]: > 100 µM | TGI [15]: > 100 µM | TGI [16]: > 100 µM | TGI [17]: > 100 µM | TGI [18]: > 100 µM | TGI [19]: > 100 µM | TGI [20]: > 100 µM | TGI [21]: > 100 µM | TGI [22]: > 100 µM | TGI [23]: > 100 µM | TGI [24]: > 100 µM | TGI [25]: 80.3 µM | TGI [26]: > 100 µM | TGI [27]: > 100 µM | TGI [28]: > 100 µM | TGI [29]: > 100 µM | TGI [30]: > 100 µM | TGI [31]: > 100 µM | TGI [32]: > 100 µM | TGI [33]: > 100 µM | TGI [34]: > 100 µM | TGI [35]: > 100 µM | TGI [36]: > 100 µM | TGI [37]: > 100 µM | TGI [38]: > 100 µM | TGI [39]: > 100 µM | TGI [40]: > 100 µM | TGI [41]: > 100 µM | TGI [42]: > 100 µM | TGI [43]: > 100 µM | TGI [44]: > 100 µM | TGI [45]: > 100 µM | TGI [46]: > 100 µM | TGI [47]: > 100 µM | TGI [48]: > 100 µM | TGI [49]: > 100 µM | TGI [50]: > 100 µM | TGI [51]: > 100 µM | TGI [52]: > 100 µM

O=c1cccc2n1CC1CNCC2C1 (centres undefined)
TGI [1]: > 100 µM | TGI [2]: > 100 µM | TGI [3]: > 100 µM | TGI [4]: > 100 µM | TGI [5]: > 100 µM | TGI [6]: > 100 µM | TGI [7]: > 100 µM | TGI [8]: > 100 µM | TGI [9]: > 100 µM | TGI [10]: > 100 µM | TGI [11]: > 100 µM | TGI [12]: > 100 µM | TGI [13]: > 100 µM | TGI [15]: > 100 µM | TGI [16]: > 100 µM | TGI [17]: > 100 µM | TGI [18]: > 100 µM | TGI [19]: > 100 µM | TGI [20]: > 100 µM | TGI [53]: > 100 µM | TGI [21]: > 100 µM | TGI [22]: > 100 µM | TGI [23]: > 100 µM | TGI [24]: > 100 µM | TGI [25]: > 100 µM | TGI [26]: > 100 µM | TGI [54]: > 100 µM | TGI [27]: > 100 µM | TGI [28]: > 100 µM | TGI [29]: > 100 µM | TGI [30]: > 100 µM | TGI [31]: > 100 µM | TGI [32]: > 100 µM | TGI [33]: > 100 µM | TGI [34]: > 100 µM | TGI [35]: > 100 µM | TGI [36]: > 100 µM | TGI [37]: > 100 µM | TGI [38]: > 100 µM | TGI [39]: > 100 µM | TGI [40]: > 100 µM | TGI [41]: > 100 µM | TGI [42]: > 100 µM | TGI [43]: > 100 µM | TGI [44]: > 100 µM | TGI [45]: > 100 µM | TGI [46]: > 100 µM | TGI [55]: > 100 µM | TGI [47]: > 100 µM | TGI [48]: > 100 µM | TGI [49]: > 100 µM | TGI [50]: > 100 µM | TGI [51]: > 100 µM | TGI [52]: > 100 µM | TGI [56]: > 100 µM

COc1ccc(-c2oc3cc(OC)ccc3c(=O)c2O)cc1
TGI [1]: > 100 µM | TGI [2]: 42.6 µM | TGI [3]: > 100 µM | TGI [4]: > 100 µM | TGI [5]: > 31.6 µM | TGI [6]: 8.33 µM | TGI [7]: > 100 µM | TGI [8]: > 100 µM | TGI [10]: 4.23 µM | TGI [13]: > 31.6 µM | TGI [17]: > 100 µM | TGI [18]: > 100 µM | TGI [19]: > 100 µM | TGI [53]: > 100 µM | TGI [23]: > 100 µM | TGI [25]: > 100 µM | TGI [26]: > 100 µM | TGI [54]: 5.53 µM | TGI [28]: > 31.6 µM | TGI [30]: > 31.6 µM | TGI [34]: > 100 µM | TGI [57]: > 31.6 µM | TGI [35]: > 100 µM | TGI [37]: > 100 µM | TGI [38]: > 100 µM | TGI [40]: > 100 µM | TGI [44]: > 31.6 µM | TGI [45]: > 31.6 µM | TGI [55]: > 31.6 µM | TGI [50]: > 100 µM | TGI [51]: > 31.6 µM

CC1=NN(c2cccc(Cl)c2)C2(C1=Cc1ccc(N(C)C)cc1)C(Cl)C(=O)N2c1nc2ccccc2s1 (centres undefined)
TGI [58]: 43.1 µM | TGI [1]: > 100 µM | TGI [2]: 46 µM | TGI [3]: > 100 µM | TGI [4]: > 100 µM | TGI [5]: > 100 µM | TGI [6]: > 100 µM | TGI [7]: > 100 µM | TGI [8]: > 100 µM | TGI [59]: > 100 µM | TGI [9]: > 100 µM | TGI [11]: > 100 µM | TGI [12]: > 100 µM | TGI [14]: > 100 µM | TGI [16]: > 100 µM | TGI [17]: > 100 µM | TGI [18]: > 100 µM | TGI [19]: > 100 µM | TGI [20]: > 100 µM | TGI [53]: > 100 µM | TGI [21]: > 100 µM | TGI [22]: > 100 µM | TGI [23]: > 100 µM | TGI [24]: > 100 µM | TGI [25]: > 100 µM | TGI [26]: > 100 µM | TGI [54]: > 100 µM | TGI [27]: > 100 µM | TGI [28]: 72.3 µM | TGI [29]: > 100 µM | TGI [30]: > 100 µM | TGI [31]: > 100 µM | TGI [32]: > 100 µM | TGI [34]: > 100 µM | TGI [57]: > 100 µM | TGI [36]: 52.4 µM | TGI [37]: > 100 µM | TGI [39]: > 100 µM | TGI [40]: > 100 µM | TGI [42]: > 100 µM | TGI [43]: > 100 µM | TGI [44]: > 100 µM | TGI [45]: > 100 µM | TGI [46]: > 100 µM | TGI [55]: 64.7 µM | TGI [48]: 38.5 µM | TGI [49]: > 100 µM | TGI [50]: > 100 µM | TGI [51]: > 100 µM | TGI [52]: > 100 µM | TGI [56]: 41.8 µM
